Data: ChEMBL document CHEMBL1201862, “PubChem BioAssay data set” (2004)
Values belong to the molecule of their own block, whether it stands above or below them. Activity calls are given as the source filed them.

Key:
[1] = molecular target: Eukaryotic translation initiation factor 4H (Homo sapiens, UniProt Q15056); test: inhibitors of translation initiation factor eIF4H – SAR follow-up (AID 435011); format: functional
[2] = molecular target: Polyadenylate-binding protein 1 (Homo sapiens, UniProt P11940); test: PABP inhibition in translation initiation, SAR follow-up (AID 435018); format: functional
J774.A1 = test: Confirmation of image-based Screening Assay for Inhibitors of Phagocytosis. [Related pubchem assays (depositor defined):AID1029, AID1643]; format: functional, cell-based; conditions: Mus musculus
[3] = molecular target: T1, Kappa-type opioid receptor (Homo sapiens, UniProt P41145); format: functional
Beta-galactosidase = Beta-galactosidase (Escherichia coli, UniProt Q8VNN2); format: functional
[4] = molecular target: T1, Kappa-type opioid receptor; format: functional; remark: listed apart in the source
[5] = molecular target: Female germline-specific tumor suppressor gld-1 (Caenorhabditis elegans, UniProt Q17339); test: blockers of GLD-1/TGE RNA complex formation – biochemical, fluorescence polarization, C. elegans, dose response (AID 2802);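 note: fluorescence polarization of labeled TGE RNA bound by purified gld-1 protein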
[6] = reduction of Shn3 3'UTR-driven luciferase in osteoblasts – cell-based, Clone20 osteoblasts, firefly luciferase, cherry-picked, dose response (AID 624132); format: functional;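 note: firefly luciferase luminescence from reporter carrying the Shn3 3'UTR in osteoblasts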
[7] = molecular target: T2, Zinc finger protein mex-5 (Caenorhabditis elegans, UniProt Q9XUB2); test: potency of MEX-5 RNA-binding blockers – biochemical, C. elegans, fluorescence polarization, dose response (AID 1960)
T2 sequence (Q9XUB2 whole entry): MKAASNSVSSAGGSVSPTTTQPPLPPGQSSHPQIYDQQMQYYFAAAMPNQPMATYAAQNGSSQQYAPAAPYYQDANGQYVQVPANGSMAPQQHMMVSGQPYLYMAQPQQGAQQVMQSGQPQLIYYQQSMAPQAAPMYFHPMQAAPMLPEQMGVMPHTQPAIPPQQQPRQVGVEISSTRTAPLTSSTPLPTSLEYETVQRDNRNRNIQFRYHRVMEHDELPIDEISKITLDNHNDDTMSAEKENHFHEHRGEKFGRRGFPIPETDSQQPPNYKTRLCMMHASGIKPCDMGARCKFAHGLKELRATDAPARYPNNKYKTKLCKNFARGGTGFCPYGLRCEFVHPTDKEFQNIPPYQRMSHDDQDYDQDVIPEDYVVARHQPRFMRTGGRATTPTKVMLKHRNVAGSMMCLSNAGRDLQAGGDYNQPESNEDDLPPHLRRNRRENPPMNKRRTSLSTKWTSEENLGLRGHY

Protein Rev = Protein Rev (Human immunodeficiency virus type 1 group M subtype B (isolate HXB2)(HIV-1), UniProt P04618); test: blockers of HIV Rev/RRE RNA complex – biochemical, fluorescence polarization, HIV-1, dose response (AID 434976); design: species or system Human immunodeficiency virus 1
[8] = non-specific 3'UTR reporter inhibition in Clone20-Shn3RL – cell-based, Renilla luciferase, cherry-picked, counter-screen for Shn3 inhibitor project, dose response (AID 624133); format: functional
[9] = molecular target: T3, RNA-binding protein pos-1 (Caenorhabditis elegans, UniProt G5EF15); test: disruptors of C. elegans POS-1 RNA interaction – biochemical, fluorescence polarization, dose response (AID 1964);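 note: purified POS-1 fused to maltose binding protein made in E. coli; potency of compounds blocking POS-1 binding to fluorescent RNA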
T3 sequence (G5EF15 whole entry): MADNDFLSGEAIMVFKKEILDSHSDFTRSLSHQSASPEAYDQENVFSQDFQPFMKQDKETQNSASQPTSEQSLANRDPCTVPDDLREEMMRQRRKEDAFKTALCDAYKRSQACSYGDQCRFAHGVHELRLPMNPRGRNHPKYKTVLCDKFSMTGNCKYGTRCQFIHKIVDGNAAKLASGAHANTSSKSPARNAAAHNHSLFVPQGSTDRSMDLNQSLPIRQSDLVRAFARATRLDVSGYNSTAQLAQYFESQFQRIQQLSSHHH

[10] = molecular target: T4, Neuropeptides B/W receptor type 1 (Homo sapiens, UniProt P48145); test: human NPBW1 receptor blockade, IC50 – cell-based, fluorescence, dose response, late-stage follow-up (AID 463251); format: functional
T4 sequence (P48145 whole entry): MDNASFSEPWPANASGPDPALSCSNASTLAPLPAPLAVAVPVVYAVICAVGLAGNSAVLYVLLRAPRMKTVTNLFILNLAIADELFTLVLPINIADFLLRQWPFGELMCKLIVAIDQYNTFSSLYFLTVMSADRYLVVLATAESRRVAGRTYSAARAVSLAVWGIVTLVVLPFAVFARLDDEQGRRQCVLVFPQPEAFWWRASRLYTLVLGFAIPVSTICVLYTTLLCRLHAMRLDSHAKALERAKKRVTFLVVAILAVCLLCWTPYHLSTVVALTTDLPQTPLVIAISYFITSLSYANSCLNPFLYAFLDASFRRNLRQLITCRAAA

[11] = molecular target: Melanin-concentrating hormone receptor 1 (Homo sapiens, UniProt Q99705); test: Late-stage fluorescence-based counterscreen for antagonists of the G-protein coupled receptor 7 (GPR7): cell-based dose response assay to identify antagonists of the melanin-concentrating hormone receptor 1 (MCHR1). [Related pubchem assays (depositor defined):AID1861, AID1880, AID1952, AID2148, AID2251, AID2257, AID485339]; format: functional;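 note: stimulated with 30 nM MCH peptide agonist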
[12] = molecular target: T5, Tyrosine-protein phosphatase non-receptor type 7 (Homo sapiens, UniProt P35236); test: redox-active compounds inhibiting HePTP phosphatase – biochemical, fluorescence, mechanism study (AID 2068); format: functional
T5 sequence (P35236 whole entry): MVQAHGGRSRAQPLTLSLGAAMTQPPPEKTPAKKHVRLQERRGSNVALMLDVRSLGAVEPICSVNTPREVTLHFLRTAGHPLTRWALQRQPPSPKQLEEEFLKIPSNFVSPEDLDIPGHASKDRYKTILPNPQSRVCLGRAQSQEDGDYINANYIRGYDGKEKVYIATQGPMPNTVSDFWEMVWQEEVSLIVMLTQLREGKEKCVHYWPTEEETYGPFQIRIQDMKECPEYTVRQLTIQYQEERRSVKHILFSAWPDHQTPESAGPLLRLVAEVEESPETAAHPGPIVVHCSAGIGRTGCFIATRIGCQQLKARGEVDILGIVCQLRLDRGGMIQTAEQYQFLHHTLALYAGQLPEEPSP

[13] = molecular target: T6, Delta-type opioid receptor (Homo sapiens, UniProt P41143); test: SAR Analysis of Antagonists of the DOR Receptor using an Image-Based Assay - Set 3. [Related pubchem assays (depositor defined):AID1777, AID1785]; format: functional
Mu-type opioid receptor [14] = molecular target: T7, Mu-type opioid receptor (Homo sapiens, UniProt P35372); test: SAR Analysis of Antagonists of the MOR Receptor using an Image-Based Assay - Set 3. [Related pubchem assays (depositor defined):AID1777, AID1785, AID1786, AID1966, AID2133, AID2136, AID2284, AID2285, AID2420]; format: functional
[15] = molecular target: T1, Kappa-type opioid receptor; test: SAR analysis of Antagonists of the Kappa Opioid Receptor (KOR) using an Image-Based Assay - Set 4. [Related pubchem assays (depositor defined):AID1777, AID1785]; format: functional
[16] = molecular target: T1, Kappa-type opioid receptor; test: SAR analysis of small molecule antagonists of the kappa opioid receptor via a luminescent beta-arrestin assay - Set 3. [Related pubchem assays (depositor defined):AID1777, AID1778, AID1785, AID1786, AID1966, AID2133, AID2136, AID2285, AID2495]; format: functional
HeLa = test: viability loss in HeLa cells – cell-based, 24 h, cherry-picked samples, cytotoxicity control, dose response (AID 504726); format: functional; conditions: Homo sapiens;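 note: potency for cytotoxicity as loss of luminescence signal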
[17] = molecular target: T8, Probable nicotinate-nucleotide adenylyltransferase (Staphylococcus aureus (strain N315), UniProt P65502); format: functional, Staphylococcus aureus subsp. aureus N315;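 for IC50 Mean: confirmatory dose-response retesting of NadD inhibitor hits first found in an ultra-high-throughput screen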
[18] = molecular target: T9, Rac GTPase-activating protein 1 (Homo sapiens, UniProt Q9H0H5); test: blockers of MgcRacGAP-driven Rac1 GTP hydrolysis – biochemical, ADP Hunter fluorescence, primary and confirmatory, confirmation (AID 624330); format: functional
T9 sequence (Q9H0H5 whole entry): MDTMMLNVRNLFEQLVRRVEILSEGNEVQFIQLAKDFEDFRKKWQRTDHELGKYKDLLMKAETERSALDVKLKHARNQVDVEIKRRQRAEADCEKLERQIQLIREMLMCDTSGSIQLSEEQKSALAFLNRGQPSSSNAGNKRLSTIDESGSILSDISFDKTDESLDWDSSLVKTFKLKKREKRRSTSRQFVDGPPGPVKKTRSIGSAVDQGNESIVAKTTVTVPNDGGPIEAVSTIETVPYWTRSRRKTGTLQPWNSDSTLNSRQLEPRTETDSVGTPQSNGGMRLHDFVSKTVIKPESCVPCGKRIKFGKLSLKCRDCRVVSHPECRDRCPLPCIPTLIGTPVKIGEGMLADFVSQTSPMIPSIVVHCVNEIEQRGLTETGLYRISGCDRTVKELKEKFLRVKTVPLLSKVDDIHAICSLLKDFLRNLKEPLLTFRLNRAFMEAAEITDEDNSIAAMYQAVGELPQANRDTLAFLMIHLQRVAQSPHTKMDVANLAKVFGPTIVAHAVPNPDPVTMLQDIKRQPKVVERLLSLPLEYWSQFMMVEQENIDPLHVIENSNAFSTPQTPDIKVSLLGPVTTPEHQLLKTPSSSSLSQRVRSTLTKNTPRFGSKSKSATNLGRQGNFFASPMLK

[19] = molecular target: T8, Probable nicotinate-nucleotide adenylyltransferase; format: functional, Staphylococcus aureus subsp. aureus N315; conditions: read-out: IC50_Mean
[20] = molecular target: T10, Small ubiquitin-related modifier 1 (Homo sapiens, UniProt P63165); test: SUMO1 protein-protein binding blockers, potency – biochemical, FRET, dose response (AID 624383); format: functional; conditions: read-out: IC50_Mean
ORF 73 = ORF 73 (Human herpesvirus 8, UniProt O40947); test: KSHV LANA DNA-binding disruption – biochemical, fluorescence polarization, cherry-picked samples, dose response (AID 504725); design: species or system Human gammaherpesvirus 8;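 note: fluorescence polarization of a labeled DNA duplex reporting LANA DNA binding; potency is for inhibitors that block LANA binding to the DNA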
[21] = molecular target: T10, Small ubiquitin-related modifier 1; test: SUMO1 protein interaction blockers, potency – biochemical, fluorescence polarization, uHTS hits, dose response (AID 624382); format: functional; conditions: read-out: IC50_Mean
[22] = molecular target: T1, Kappa-type opioid receptor; test: kappa opioid receptor blockers, cell-based, luminescence, beta-arrestin, SAR follow-up (AID 2285); format: functional
[23] = molecular target: T1, Kappa-type opioid receptor; test: kappa opioid receptor blockers, image-based, SAR follow-up (AID 2348); format: functional
[24] = molecular target: T1, Kappa-type opioid receptor; test: kappa opioid receptor activation potency – imaging, image-based, SAR follow-up (AID 2359); format: functional
[25] = molecular target: T6, Delta-type opioid receptor; test: DOR agonists, SAR follow-up, image-based (AID 2370); format: functional
Mu-type opioid receptor [26] = molecular target: T7, Mu-type opioid receptor; test: mu opioid receptor blockers – image-based, SAR follow-up (AID 2420); format: functional;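 note: compounds added before stimulation of receptor with agonist DAMGO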
[27] = molecular target: T6, Delta-type opioid receptor; test: delta opioid receptor blockers – image-based, SAR follow-up (AID 2357); format: functional
Mu-type opioid receptor [28] = molecular target: T7, Mu-type opioid receptor; test: mu opioid receptor activators, image-based, SAR follow-up (AID 2352); format: functional

T7 sequence (P35372 whole entry): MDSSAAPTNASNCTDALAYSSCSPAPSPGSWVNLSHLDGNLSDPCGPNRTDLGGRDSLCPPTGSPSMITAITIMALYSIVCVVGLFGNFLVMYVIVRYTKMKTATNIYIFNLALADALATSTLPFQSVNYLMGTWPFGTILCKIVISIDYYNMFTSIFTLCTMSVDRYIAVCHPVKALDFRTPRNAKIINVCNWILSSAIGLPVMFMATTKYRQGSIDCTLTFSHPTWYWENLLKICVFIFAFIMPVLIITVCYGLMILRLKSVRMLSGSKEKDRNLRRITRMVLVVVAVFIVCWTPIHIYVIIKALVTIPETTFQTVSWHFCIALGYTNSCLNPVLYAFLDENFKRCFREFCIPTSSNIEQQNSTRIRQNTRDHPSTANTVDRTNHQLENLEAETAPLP
T1 sequence (P41145 whole entry): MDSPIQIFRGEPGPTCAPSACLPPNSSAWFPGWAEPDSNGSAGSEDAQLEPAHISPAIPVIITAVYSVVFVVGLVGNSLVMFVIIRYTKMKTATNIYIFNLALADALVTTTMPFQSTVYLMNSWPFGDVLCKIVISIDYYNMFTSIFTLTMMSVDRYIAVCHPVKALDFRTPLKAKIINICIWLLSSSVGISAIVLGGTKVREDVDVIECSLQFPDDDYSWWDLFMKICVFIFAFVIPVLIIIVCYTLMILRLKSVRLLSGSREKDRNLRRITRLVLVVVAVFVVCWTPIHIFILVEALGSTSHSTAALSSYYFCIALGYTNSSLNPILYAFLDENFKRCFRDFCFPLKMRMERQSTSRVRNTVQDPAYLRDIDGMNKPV
T6 sequence (P41143 whole entry): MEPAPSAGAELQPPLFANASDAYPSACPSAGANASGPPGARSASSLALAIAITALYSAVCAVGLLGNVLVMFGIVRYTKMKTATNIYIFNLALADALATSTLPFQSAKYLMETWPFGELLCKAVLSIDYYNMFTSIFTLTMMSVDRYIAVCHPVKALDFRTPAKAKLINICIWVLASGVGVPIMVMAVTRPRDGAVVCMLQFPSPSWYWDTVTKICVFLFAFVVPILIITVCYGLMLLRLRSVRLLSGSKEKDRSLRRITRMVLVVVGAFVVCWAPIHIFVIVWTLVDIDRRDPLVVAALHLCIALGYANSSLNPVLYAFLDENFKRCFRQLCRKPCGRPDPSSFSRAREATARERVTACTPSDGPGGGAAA
T10 sequence (P63165 whole entry): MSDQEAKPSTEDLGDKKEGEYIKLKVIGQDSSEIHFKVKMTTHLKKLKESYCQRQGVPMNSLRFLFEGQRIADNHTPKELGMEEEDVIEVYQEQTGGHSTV
Chain of Female germline-specific tumor suppressor gld-1 (Q17339 whole entry): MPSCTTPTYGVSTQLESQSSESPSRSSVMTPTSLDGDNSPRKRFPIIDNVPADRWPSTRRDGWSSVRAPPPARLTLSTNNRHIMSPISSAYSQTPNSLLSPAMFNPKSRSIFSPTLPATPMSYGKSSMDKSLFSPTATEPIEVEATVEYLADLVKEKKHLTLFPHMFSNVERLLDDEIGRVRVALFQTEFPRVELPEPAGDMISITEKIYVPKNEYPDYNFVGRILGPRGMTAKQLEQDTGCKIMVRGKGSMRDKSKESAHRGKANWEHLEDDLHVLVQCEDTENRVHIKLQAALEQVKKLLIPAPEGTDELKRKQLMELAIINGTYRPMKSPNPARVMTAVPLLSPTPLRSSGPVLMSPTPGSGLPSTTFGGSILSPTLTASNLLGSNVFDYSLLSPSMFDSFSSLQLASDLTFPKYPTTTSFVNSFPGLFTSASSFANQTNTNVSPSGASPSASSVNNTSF
Chain of Protein Rev (P04618 whole entry): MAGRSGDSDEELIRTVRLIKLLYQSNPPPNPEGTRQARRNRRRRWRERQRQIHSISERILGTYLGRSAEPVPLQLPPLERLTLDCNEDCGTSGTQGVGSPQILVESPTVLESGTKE
Chain of Beta-galactosidase (Q8VNN2 whole entry): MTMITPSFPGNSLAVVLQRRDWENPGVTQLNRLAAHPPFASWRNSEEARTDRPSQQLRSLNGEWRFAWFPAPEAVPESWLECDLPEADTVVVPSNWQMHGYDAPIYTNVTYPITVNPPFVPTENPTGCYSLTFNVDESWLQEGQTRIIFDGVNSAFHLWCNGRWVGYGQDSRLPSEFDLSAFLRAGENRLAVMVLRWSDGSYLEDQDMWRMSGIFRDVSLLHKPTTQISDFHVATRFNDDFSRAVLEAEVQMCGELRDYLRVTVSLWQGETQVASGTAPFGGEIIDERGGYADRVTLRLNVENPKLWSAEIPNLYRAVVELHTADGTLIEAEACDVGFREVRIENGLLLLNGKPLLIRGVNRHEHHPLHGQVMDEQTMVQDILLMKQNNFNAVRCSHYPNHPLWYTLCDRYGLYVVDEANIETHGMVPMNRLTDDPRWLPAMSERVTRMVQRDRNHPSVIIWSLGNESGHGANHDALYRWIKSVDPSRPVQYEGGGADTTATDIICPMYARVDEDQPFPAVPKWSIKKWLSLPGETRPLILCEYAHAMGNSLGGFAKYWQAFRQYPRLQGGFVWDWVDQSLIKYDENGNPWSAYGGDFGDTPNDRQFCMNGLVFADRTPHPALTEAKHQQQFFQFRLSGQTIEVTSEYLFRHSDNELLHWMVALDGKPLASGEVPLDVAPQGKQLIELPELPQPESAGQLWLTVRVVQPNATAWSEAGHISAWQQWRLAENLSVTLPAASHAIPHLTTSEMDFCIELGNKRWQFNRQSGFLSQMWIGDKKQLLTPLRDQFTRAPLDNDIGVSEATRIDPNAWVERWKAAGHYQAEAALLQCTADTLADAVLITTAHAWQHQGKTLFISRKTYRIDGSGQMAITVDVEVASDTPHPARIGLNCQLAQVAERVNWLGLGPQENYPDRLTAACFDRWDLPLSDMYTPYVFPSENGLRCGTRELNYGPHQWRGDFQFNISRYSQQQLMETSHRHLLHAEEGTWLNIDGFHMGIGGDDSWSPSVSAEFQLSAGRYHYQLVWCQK
Chain of Melanin-concentrating hormone receptor 1 (Q99705 whole entry): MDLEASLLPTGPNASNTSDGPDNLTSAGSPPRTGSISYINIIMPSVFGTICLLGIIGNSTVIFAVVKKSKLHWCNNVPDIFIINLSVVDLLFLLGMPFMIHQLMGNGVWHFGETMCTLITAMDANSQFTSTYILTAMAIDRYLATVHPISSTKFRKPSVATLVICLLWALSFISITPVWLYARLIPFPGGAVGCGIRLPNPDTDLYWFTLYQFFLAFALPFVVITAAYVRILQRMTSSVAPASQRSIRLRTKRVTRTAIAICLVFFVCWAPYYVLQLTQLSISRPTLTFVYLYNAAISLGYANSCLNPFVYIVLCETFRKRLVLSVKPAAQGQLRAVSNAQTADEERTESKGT
Chain of Polyadenylate-binding protein 1 (P11940 whole entry): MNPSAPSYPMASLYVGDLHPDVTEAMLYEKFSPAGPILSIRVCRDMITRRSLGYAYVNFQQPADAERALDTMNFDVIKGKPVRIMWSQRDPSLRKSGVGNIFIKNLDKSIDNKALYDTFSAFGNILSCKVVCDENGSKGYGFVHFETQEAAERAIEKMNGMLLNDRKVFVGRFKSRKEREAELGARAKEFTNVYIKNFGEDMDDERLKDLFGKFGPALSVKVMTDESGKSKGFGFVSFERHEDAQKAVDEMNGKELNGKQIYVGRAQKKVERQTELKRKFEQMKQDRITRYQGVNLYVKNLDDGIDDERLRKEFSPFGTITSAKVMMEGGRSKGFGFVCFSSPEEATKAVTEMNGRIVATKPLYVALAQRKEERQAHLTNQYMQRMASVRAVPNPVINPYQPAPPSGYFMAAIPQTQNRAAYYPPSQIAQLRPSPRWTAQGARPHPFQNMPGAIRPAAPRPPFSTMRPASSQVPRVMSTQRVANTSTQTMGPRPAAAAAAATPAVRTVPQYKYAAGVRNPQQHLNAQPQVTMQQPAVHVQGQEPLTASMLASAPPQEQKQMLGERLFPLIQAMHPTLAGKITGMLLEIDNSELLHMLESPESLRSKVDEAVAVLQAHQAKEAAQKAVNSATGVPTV

SMILES: Cc1ccccc1NC(=O)CSc1ccc(-c2ccco2)nn1
- IC50 [1]: > 100 µM (inactive)
- IC50 [2]: > 100 µM (inactive)

SMILES: Cc1c(C=NNC(=O)C2COc3ccccc3O2)c2ccccc2n1C (stereo not drawn)
- IC50 (J774.A1): > 25 µM (inactive)

SMILES: CCOC(=O)Cn1c(=O)c(-c2cc(Br)ccc2N)nc2ccccc21
- IC50 [5]: 25.4 µM (inactive)
- AC50 [6]: 758 nM (active)
- EC50 [7]: 26.1 µM (inconclusive)
- IC50 (Protein Rev): 4.53 µM (active)
- AC50 [8]: 833 nM (active)
- EC50 [9]: > 300 µM (inconclusive)

SMILES: COc1ccc(CN(CCNC(=O)c2ccc(CNS(=O)(=O)c3ccccc3)cc2)C(C)C)cc1
- IC50 [13]: > 32 µM (inactive)
- IC50 (Mu-type opioid receptor [14]): 14.3 µM (inactive)
- IC50 [15]: 1.79 µM (active)
- IC50 [16]: 5.58 µM (active)

SMILES: O=S(=O)(O)c1cc(O)c2ccc(Nc3ccccc3)cc2c1
- AC50 (HeLa): 241 µM (active)
- IC50 [17]: 15.9 µM (active)
- IC50 [18]: 40.9 µM (active)
- IC50 [19]: 40.3 µM (active)
- IC50 [20]: 2.16 µM (active)
- AC50 (ORF 73): 95.9 µM (active)
- IC50 [21]: > 66.6 µM (inactive)

SMILES: Cc1ccc(C)c(N2CCN(CCCNC(=O)Cn3c(=O)c4cccn4c4cccnc43)CC2)c1
- IC50 [22]: > 10 µM (inactive)
- IC50 [23]: 20.5 µM (inactive)
- EC50 [24]: > 32 µM (inactive)
- EC50 [25]: > 32 µM (inactive)
- IC50 (Mu-type opioid receptor [26]): > 32 µM (inactive)
- IC50 [27]: > 32 µM (inactive)
- EC50 (Mu-type opioid receptor [28]): > 32 µM (inactive)

Other lines, results leading:

- IC50 [3]: 4.88 µM (active)
- EC50 (Beta-galactosidase): > 31.5 µM (inactive)
- IC50 [4]: 2460 nM
SMILES: CC/C(=N\Nc1ccnc2cc(Cl)ccc12)c1ccc(O)cc1

- IC50 [10]: 2.1 µM (active)
- IC50 [11]: 6.3 µM (active)
SMILES: CC(=O)Nc1ccc(Oc2c(Cl)cnn(-c3ccc(C(C)C)cc3)c2=O)cc1

- IC50 [12]: 683 nM (active)
SMILES: CCOC(=O)CCNC(=O)Nc1ccc2nc(-c3ccco3)c(-c3ccco3)nc2c1
